For the data set, the system named is L929 cells. As to the kind of experiment: Cytotoxicity of the cured adhesive in accordance with ISO 10993-5:2009. The note with it: adhesive of Prepolymer C cured with equivalent amount of curing agent. In kind it is cell-based. The procedure:
Prepolymer C was reacted with an equivalent amount of 3. The cytotoxicity was measured in accordance with ISO 10993-5:2009 using L929 cells.
4 g of prepolymer C were stirred thoroughly in a beaker with an equivalent amount of (5) and cured. The adhesive was measured in accordance with ISO 10993-5:2009 using L929 cells.

As to `CCOC(=O)CC(NCCCC(CCCNC(CC(=O)OCC)C(=O)OCC)CCCNC(CC(=O)OCC)C(=O)OCC)C(=O)OCC` (stereo not drawn) [Compound 3, Tetraethyl 2,2′-(4-(3-(1,4-diethoxy-1,4-dioxobutan-2-ylamino)propyl)heptane-1,7-diyl)bis-(azandiyl)disuccinate], the cell viability result is “no reduction in cell viability” and the cytotoxicity category result is given as “not to be categorised as cytotoxic”. As to `CCOC(=O)CC(NCCCCC(CCCNC(CC(=O)OCC)C(=O)OCC)CNC(CC(=O)OCC)C(=O)OCC)C(=O)OCC` (stereo not drawn) [Compound 5, Diethyl 2-[(8-[(1,4-diethoxy-1,4-dioxobutan-2-yl)amino]-4-{[(1,4-diethoxy-1,4-dioxobutan-2-yl)-amino]methyl}octyl)amino]butanedioate, reference compound], the cytotoxicity category result is “high cyctotoxicity”.

(Values after patent US20130317134A1, “TISSUE ADHESIVE BASED ON TRIFUNCTIONAL ASPARTATES” (Bayer Intellectual Property GmbH Creative Campus Monheim, priority 2011, published 2013).)
